{"source": "patent US9550763B2", "about": "“Heterocyclic ring and carbocyclic derivative” (Shionogi & Co., Ltd., priority 2012, dated 2017)", "biological_target": "human P2X3 receptor (Homo sapiens (Human), UniProt P56373)", "sequence (P56373 whole entry)": "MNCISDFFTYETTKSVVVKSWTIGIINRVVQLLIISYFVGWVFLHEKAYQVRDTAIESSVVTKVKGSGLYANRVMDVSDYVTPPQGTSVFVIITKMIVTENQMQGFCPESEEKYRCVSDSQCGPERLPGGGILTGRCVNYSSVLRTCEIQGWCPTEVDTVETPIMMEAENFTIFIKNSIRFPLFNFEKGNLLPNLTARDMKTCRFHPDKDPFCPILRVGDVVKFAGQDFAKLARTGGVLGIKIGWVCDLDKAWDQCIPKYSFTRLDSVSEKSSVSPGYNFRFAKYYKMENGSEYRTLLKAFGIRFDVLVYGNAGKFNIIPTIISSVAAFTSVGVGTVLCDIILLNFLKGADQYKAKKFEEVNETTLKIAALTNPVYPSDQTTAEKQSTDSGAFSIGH", "assay": "Evaluation of human P2X3 receptor inhibitory activity (Test Example 1-2, FLIPR 384, 384-well, 150 nM ATP)", "type": "cell-based", "procedure": "Stably expressing cell line (C6BU-1 cell transfected with human P2X3 receptor gene (GenBank accession number Y07683) was used. The cells were seeded in a 384-well microtiter plate at a concentration of 3000 cells/well and cultured in the medium (7.0% fetal bovine serum, 7.0% horse serum, 1% antibiotic and antifungal in DMEM) for one day at 37° C. under 5% carbon dioxide atmosphere. The medium was replaced with 4 μM Fluo-3-AM solution (20 mM HEPES, […], 5.27 mM KCl, 0.9 mM MgCl2, 1.26 mM CaCl2, 5.6 mM D-glucose, 2.5 mM probenecid, 0.5% BSA, and 0.04% Pluronic F-127, pH 7.5) and incubated at 37° C. under 5% dioxide carbon atmosphere for one hour. The plate was washed with washing buffer (20 mM HEPES, 137 mM NaCl, 5.27 mM KCl, 0.9 mM MgCl2, 1.26 mM CaCl2, 5.6 mM D-glucose, 2.5 mM probenecid, pH7.5), and each well was added with 20 μL of this buffer. The plate was placed in High-Throughput Screening System FLIPR 384 (Molecular Device Co.). Measurement of fluorescence intensity by FLIPR 384 was started, and 20 μL of DMSO solutions containing different concentrations of the test compound as prepared by dilution with dilution buffer (20 mM HEPES, 137 mM NaCl, 5.27 mM KCl, 0.9 mM MgCl2, 1.26 mM CaCl2, 5.6 mM D-glucose, 2.5 mM probenecid, 0.1% Pluronic F-127, pH 7.5) were dispensed to each well through the built-in automatic dispenser. Five minutes after, 150 nM ATP solution (25 μL) prepared by dilution with the dilution buffer was dispensed through the built-in automatic dispenser, and the measurement of fluorescence intensity was continued for 4 min. For each well, the specific maximum fluorescence intensity was calculated as the ratio of the maximum fluorescence intensity after addition of the ATP solution to the fluorescence intensity at the starting of the measurement. The 50% inhibitory concentration (IC50) was calculated under the assumption that the specific maximum fluorescence intensity without test compound is 0% inhibition and that the specific maximum fluorescence intensity when the dilution buffer was added in place of ATP solution is 100% inhibition, to evaluate the inhibitory activity of the test compound. The specific maximum fluorescence intensity and IC50 were calculated using Spotfire (Science & Technology Systems, Inc.)\nThe data of the compounds I-001 to I-300 are the results by the method mentioned in Test Example 1-1, and the data of the compounds I-301 to I-483 are the results by the method mentioned in Test Example 1-2.", "key": {"[1]": {"details": "human P2X3 receptor in C6BU-1 cells, Test Example 1-2 (compounds I-301 to I-483), read-out: P2X3 IC50"}, "[2]": {"details": "C6BU-1 cell transfected with human P2X3 receptor gene, method of Test Example 1-2 (compounds I-301 to I-483), read-out: IC50 (human P2X3 receptor inhibitory activity)"}}, "note": "Where two headings read alike, the source gives them in different places.", "data": [{"smiles": "CC(C)(C)c1c[nH]/c(=N\\c2ccc(Oc3cccc(C(N)=O)n3)cc2)n(Cc2ccc(Cl)cc2)c1=O", "note": "[Compound I-482]", "values": [{"measurement": "IC50", "setting": "[1]", "value": 251, "unit": "nM"}]}, {"smiles": "CCOC(=O)c1cn(Cc2ccc(Cl)cc2)c(Nc2ccc(Oc3ccc(F)cn3)cc2)cc1=O", "note": "[Compound I-463, 1-(4-chloro-benzyl)-2-[4-(5-fluoro-2-pyridyloxy)phenylamino]-5-(ethoxycarbonyl)pyridin-4(1H)-one]", "values": [{"measurement": "IC50", "setting": "[1]", "value": 26, "unit": "nM"}]}, {"smiles": "CN(C)c1ncc(Nc2ccc(Oc3ccc(F)cn3)cc2)c(Cc2ccc(F)cc2)n1", "note": "[Compound I-481, 2-dimethylamino-4-(4-fluorobenzyl)-5-[4-(5-fluoro-2-pyridyloxy)phenylamino]pyrimidine]", "values": [{"measurement": "IC50", "setting": "[2]", "value": "< 30000", "unit": "nM"}]}, {"smiles": "COCCn1c(=O)cc(Nc2ccc(Oc3cccc(C(=O)O)n3)c(C)n2)n(Cc2ccc(Cl)cc2)c1=O", "note": "[Compound I-324]", "values": [{"measurement": "IC50", "setting": "[1]", "value": 14, "unit": "nM"}]}, {"smiles": "O=c1c(Nc2ccon2)c[nH]/c(=N\\c2ccc(Oc3ccon3)cc2)n1Cc1ccc(Cl)cc1", "note": "[Compound I-307]", "values": [{"measurement": "IC50", "setting": "[1]", "value": 21, "unit": "nM"}]}, {"smiles": "C#CCNC(=O)c1c[nH]/c(=N\\c2ccc(Oc3cccc(F)n3)cc2)n(Cc2ccc(Cl)cc2)c1=O", "note": "[Compound I-406]", "values": [{"measurement": "IC50", "setting": "[1]", "value": 8, "unit": "nM"}]}, {"smiles": "Cc1noc(-c2c[nH]/c(=N\\c3ccc(Oc4ccc(C(=O)O)nn4)cc3)n(Cc3ccc(Cl)cc3)c2=O)n1", "note": "[Compound I-317]", "values": [{"measurement": "IC50", "setting": "[1]", "value": 13, "unit": "nM"}]}, {"smiles": "O=C(O)c1cccc(Oc2ccc(Nc3nc4ccccc4n3Cc3ccc(Cl)cc3)cc2)n1", "note": "[Compound I-455]", "values": [{"measurement": "IC50", "setting": "[2]", "value": "< 30000", "unit": "nM"}]}, {"smiles": "COC(=O)C(C)(C)Cn1c(=O)cc(Nc2ccc(Oc3ccc(F)cn3)c(C)n2)n(Cc2ccc(Cl)cc2)c1=O", "note": "[Compound I-364]", "values": [{"measurement": "IC50", "setting": "[1]", "value": 4, "unit": "nM"}]}, {"smiles": "COC(=O)c1cccc(Oc2ccc(/N=c3\\[nH]cc(C(F)(F)F)c(=O)n3Cc3ccc(Cl)cc3)cc2)n1", "note": "[Compound I-471]", "values": [{"measurement": "IC50", "setting": "[1]", "value": 683, "unit": "nM"}]}, {"smiles": "O=C(O)c1cccc(Oc2ccc(/N=c3\\[nH]cc(Br)c(=O)n3Cc3ccc(Cl)cc3)cc2)n1", "note": "[Compound I-440]", "values": [{"measurement": "IC50", "setting": "[1]", "value": 15, "unit": "nM"}]}, {"smiles": "N#Cc1cccc(Oc2ccc(/N=c3\\[nH]cc(-c4ccccc4)c(=O)n3Cc3ccc(Cl)cc3)cc2)n1", "note": "[Compound I-408, 1-(4-chlorobenzyl)-2-[4-(6-cyano-2-pyridyloxy)phenylamino]-5-phenylpyrimidin-6(1H)-one]", "values": [{"measurement": "IC50", "setting": "[1]", "value": 407, "unit": "nM"}]}, {"smiles": "O=C(NC1CCOCC1)c1cn(Cc2ccc(Cl)cc2)c(Nc2ccc3nc(C(F)F)sc3c2)nc1=O", "note": "[Compound I-359]", "values": [{"measurement": "IC50", "setting": "[1]", "value": 57, "unit": "nM"}]}, {"smiles": "O=C(O)c1cccc(Oc2ccc(/N=c3\\[nH]cc(N4CCCC4=O)c(=O)n3Cc3ccc(Cl)cc3)cc2)n1", "note": "[Compound I-336]", "values": [{"measurement": "IC50", "setting": "[1]", "value": 41, "unit": "nM"}]}, {"smiles": "Cc1c[nH]c2cc(Nc3ncc(NC(=O)C4CCOCC4)c(=O)n3Cc3ccc(Cl)cc3)ccc12", "note": "[Compound I-413]", "values": [{"measurement": "IC50", "setting": "[1]", "value": 897, "unit": "nM"}]}, {"smiles": "CC(=O)OCC(=O)NNC(=O)c1c[nH]/c(=N\\c2ccc(Oc3ccon3)cc2)n(Cc2ccc(Cl)cc2)c1=O", "note": "[Compound I-343]", "values": [{"measurement": "IC50", "setting": "[1]", "value": 84, "unit": "nM"}]}, {"smiles": "COC(=O)c1cccc(Oc2ccc(/N=c3\\[nH]cc(C4CCOCC4)c(=O)n3Cc3ccc(Cl)cc3)cc2)n1", "note": "[Compound I-476]", "values": [{"measurement": "IC50", "setting": "[1]", "value": 66, "unit": "nM"}]}, {"smiles": "N#CCNC(=O)c1c[nH]/c(=N\\c2ccc(Oc3ccon3)cc2)n(Cc2ccc(Cl)cc2)c1=O", "note": "[Compound I-425]", "values": [{"measurement": "IC50", "setting": "[1]", "value": 21, "unit": "nM"}]}, {"smiles": "O=C(N[C@@H]1CCOC1)c1cn(Cc2ccc(Cl)cc2)c(Nc2ccc(Oc3cccc(F)n3)cc2)nc1=O", "note": "[Compound I-398]", "values": [{"measurement": "IC50", "setting": "[1]", "value": 22, "unit": "nM"}]}, {"smiles": "CSc1ncc(Nc2ccc(Oc3ccc(F)cn3)cc2)c(Cc2ccc(F)cc2)n1", "note": "[Compound I-479]", "values": [{"measurement": "IC50", "setting": "[2]", "value": "< 30000", "unit": "nM"}]}, {"smiles": "N#CCNC(=O)c1c[nH]/c(=N\\c2ccc(Oc3ccc(F)cn3)cc2)n(Cc2ccc(Cl)cc2)c1=O", "note": "[Compound I-426]", "values": [{"measurement": "IC50", "setting": "[1]", "value": 15, "unit": "nM"}]}, {"smiles": "COC(=O)[C@H](C)[C@H](C)n1c(=O)cc(Nc2ccc(Oc3ccc(F)nc3)c(C)n2)n(Cc2ccc(Cl)cc2)c1=O", "note": "[Compound I-338]", "values": [{"measurement": "IC50", "setting": "[1]", "value": 9, "unit": "nM"}]}, {"smiles": "CCOc1cn(Cc2ccc(Cl)cc2)c(Nc2ccc(Oc3cccc(C#N)n3)cc2)nc1=O", "note": "[Compound I-429]", "values": [{"measurement": "IC50", "setting": "[1]", "value": 441, "unit": "nM"}]}, {"smiles": "O=C(NC[C@@H]1CCCO1)c1cn(Cc2ccc(Cl)cc2)c(Nc2ccc(Oc3cccc(F)n3)cc2)nc1=O", "note": "[Compound I-386]", "values": [{"measurement": "IC50", "setting": "[1]", "value": 15, "unit": "nM"}]}, {"smiles": "O=C(NCC1CCCCO1)c1cn(Cc2ccc(Cl)cc2)c(Nc2ccc(Oc3cccc(F)n3)cc2)nc1=O", "note": "(stereo not shown) [Compound I-388]", "values": [{"measurement": "IC50", "setting": "[1]", "value": 29, "unit": "nM"}]}]}
